Data taken from PubChem BioAssay (NCI).
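1) Cells in 96-well plates. 2) Compound, 48 h, 5 concentrations. 3) Linear interpolation between surrounding doses. 4) Unreached endpoint = highest concentration. TGI denotes the concentration required for complete inhibition of growth.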

Legend:
Test in all cases: DTP human tumour cell line panel, 48 h
A498 renal = tested on: A498 renal
HCT-116 colon = tested on: HCT-116 colon
HS 578T breast = tested on: HS 578T breast
MDA-MB-435 = tested on: MDA-MB-435
PC-3 prostate = tested on: PC-3 prostate
SF-268 CNS = tested on: SF-268 CNS
SF-539 CNS = tested on: SF-539 CNS
SR leukemia = tested on: SR leukemia
BT-549 breast = tested on: BT-549 breast
MALME-3M melanoma = tested on: MALME-3M melanoma

SMILES | TGI (A498 renal) [µM] | TGI (HCT-116 colon) [µM] | TGI (HS 578T breast) [µM] | TGI (MDA-MB-435) [µM] | TGI (PC-3 prostate) [µM] | TGI (SF-268 CNS) [µM] | TGI (SF-539 CNS) [µM] | TGI (SR leukemia) [µM] | TGI (BT-549 breast) [µM] | TGI (MALME-3M melanoma) [µM]
CCn1nc(-c2ccccc2)c2c1N(C)c1ccccc1-n1c(-c3ccccc3)nnc1-2 | 11.2 | 26.3 | 52.4 | > 100 | 27.7 | 32.5 | 48 | > 100 |  | 
COC(=O)C1=COC(C)C2C[n+]3ccc4c([nH]c5ccccc54)c3CC12 (stereo not given) | > 100 | > 100 | > 100 | > 100 | > 100 | > 100 | > 100 |  | > 100 | 
O=c1[nH]c(=S)c2cc3c(=S)[nH]c(=O)n(CCC(c4ccccc4)(c4ccccc4)c4ccccc4)c3nc2n1CCC(c1ccccc1)(c1ccccc1)c1ccccc1 | > 100 | > 100 |  | > 100 | > 100 | > 100 |  |  | > 100 | > 100
COc1cc2c(cc1OC)C1=Cc3ccc(OC)c(OC)c3C(C#N)N1CC2 (stereo not given) | > 100 | > 100 | > 100 | 82.3 | > 100 | > 100 | > 100 |  | 63.2 | 82.9
c1ccc2c(c1)nc1n2CCNC1 | > 100 | > 100 | > 100 | > 100 | > 100 | > 100 | > 100 | > 100 | > 100 | 
N#Cc1nc(C(F)(F)F)oc1N | > 100 | > 100 | > 100 | > 100 | > 100 | > 100 | > 100 | > 100 |  | > 100
NNC(=Nc1ccccc1)SCc1ccccc1 | > 100 | > 100 |  | > 100 | > 100 |  | > 100 | > 100 | > 100 | > 100
N#CC(c1nc2ccccc2s1)c1nc(Cl)ncc1Br (stereo not given) | > 100 | 69.8 |  | > 100 |  | > 100 | 82 |  | 80.5 | > 100
COc1ccc(/C=C2\Sc3nnc(C)n3N=C2c2cc(F)c(Cl)cc2Cl)cc1OC | 37.1 | 18.5 | > 100 | 23.2 | 37.7 | 50.9 | 37.7 |  | 34.1 | 37.1
Cc1cccc(/C=N/NC(=S)N2CCCCCC2)n1 | 13.5 | 0.11 | > 100 | 38.9 | > 72.5 |  | 0.549 |  | 14.4 | 25.3
CCOC(=O)c1[nH]cnc1/N=N/N(C)N | > 100 | > 100 | > 100 | > 100 | > 100 | > 100 | > 100 |  | > 100 | > 100
CC(C)=NNc1cnnc2ccc([N+](=O)[O-])cc12 |  | > 100 | > 100 | > 100 | > 100 | > 100 | > 100 | > 100 | > 100 | > 100
